According to patent US20180148418A1, “AMIDO-SUBSTITUTED CYCLOHEXANE DERIVATIVES” (Bayer Pharma Aktiengesellschaft, priority 2015, published 2018):

Legend:
[1] = test system: HEK293 cells cotransfected with the FOP control vector; assay: HEK293 FOP assay (control reporter with non-functional TCF elements); format: cell-based; details: Homo sapiens, 16 hours
How it was run: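 Stable HEK293 line carrying FOP control reporter (randomized non-functional TCF sites, with pcDNA3), Geneticin-selected, plated 24 h before assay. Stimulated with recombinant human Wnt-3a (2500-5 ng/ml) and compounds 50 μM–15 nM (3.16-fold steps) in CAFTY buffer pH 7.4 with 2 mM Ca2+, 0.01% BSA, run parallel to TOP line.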

TNKS2 = biological target: T1, TNKS2 (Homo sapiens, UniProt Q9H2K2); assay: TNKS2 Assay B (auto-parsylation, [3H]-NAD+ SPA); format: biochemical; details: 6 nM TNKS2, auto-parsylation, over night at room temperature
T1 construct: purchased BPS Bioscience, San Diego, USA 80572 (TNKS2 Histone Ribosylation Assay Kit)
T1 sequence (Q9H2K2 1-1166): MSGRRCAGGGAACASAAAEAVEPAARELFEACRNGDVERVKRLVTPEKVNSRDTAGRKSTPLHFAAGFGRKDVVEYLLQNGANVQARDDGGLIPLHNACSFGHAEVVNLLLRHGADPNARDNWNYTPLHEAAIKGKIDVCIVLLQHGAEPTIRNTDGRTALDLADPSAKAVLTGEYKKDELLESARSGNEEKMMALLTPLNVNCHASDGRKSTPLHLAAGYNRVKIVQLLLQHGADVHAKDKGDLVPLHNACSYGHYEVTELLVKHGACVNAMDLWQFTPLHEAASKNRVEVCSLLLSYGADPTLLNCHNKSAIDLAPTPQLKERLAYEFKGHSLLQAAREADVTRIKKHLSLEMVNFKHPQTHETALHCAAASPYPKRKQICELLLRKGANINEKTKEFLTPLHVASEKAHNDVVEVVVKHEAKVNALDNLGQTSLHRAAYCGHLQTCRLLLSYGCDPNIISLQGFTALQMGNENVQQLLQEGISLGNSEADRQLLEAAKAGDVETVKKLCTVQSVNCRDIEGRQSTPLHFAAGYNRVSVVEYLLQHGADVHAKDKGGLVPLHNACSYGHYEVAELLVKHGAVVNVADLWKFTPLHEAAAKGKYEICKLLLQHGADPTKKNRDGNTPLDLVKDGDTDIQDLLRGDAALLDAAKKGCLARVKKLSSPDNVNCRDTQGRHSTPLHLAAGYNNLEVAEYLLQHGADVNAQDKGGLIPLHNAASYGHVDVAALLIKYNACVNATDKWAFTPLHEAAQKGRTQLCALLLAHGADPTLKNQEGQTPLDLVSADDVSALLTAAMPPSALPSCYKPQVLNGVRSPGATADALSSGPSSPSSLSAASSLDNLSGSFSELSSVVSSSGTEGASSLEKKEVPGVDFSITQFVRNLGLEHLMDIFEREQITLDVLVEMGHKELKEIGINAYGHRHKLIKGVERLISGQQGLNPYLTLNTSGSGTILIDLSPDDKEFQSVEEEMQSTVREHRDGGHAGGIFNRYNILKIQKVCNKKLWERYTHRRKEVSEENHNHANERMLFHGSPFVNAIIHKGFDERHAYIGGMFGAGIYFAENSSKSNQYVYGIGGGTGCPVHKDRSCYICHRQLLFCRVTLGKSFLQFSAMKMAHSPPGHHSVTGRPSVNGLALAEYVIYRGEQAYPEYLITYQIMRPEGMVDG

Compound	IC50 [1] [µM]	IC50 (TNKS2) [µM]
Cc1c(C(C)(C)O)cnc2c(C(=O)N[C@H]3CC[C@H](C(=O)Nc4ccc(F)cc4Cl)CC3)cnn12 [Example 359, N-{trans-4-[(2-chloro-4-fluorophenyl)carbamoyl]cyclohexyl}-6-(2-hydroxypropan-2-yl)-7-methylpyrazolo[1,5-a]pyrimidine-3-carboxamide]	≥ 50	> 10
O=C(N[C@H]1CC[C@H](C(=O)Nc2ccc(F)cc2Cl)CC1)c1cnc2ccc(O)nn12 [Example 360, N-{trans-4-[(2-chloro-4-fluorophenyl)carbamoyl]cyclohexyl}-6-hydroxyimidazo[1,2-b]pyridazine-3-carboxamide]	≥ 50	1.7
Cc1nc2c(C(=O)N[C@H]3CC[C@H](C(=O)Nc4c(F)cc(F)cc4Cl)CC3)cnn2c2c1CCC2 [Example 363, N-{trans-4-[(2-chloro-4,6-difluorophenyl)carbamoyl]cyclohexyl}-5-methyl-7,8-dihydro-6H-cyclopenta[e]pyrazolo[1,5-a]pyrimidine-3-carboxamide]	≥ 50	0.019
